These results are taken from the OPERA property sets (Mansouri et al. 2018).

The structures appear in SMILES notation.

In general, logP refers to a log measure of how a compound divides between an organic and an aqueous phase.

The molecule `CC(O)CC(F)(F)F` (stereo not given) gave a log partition coefficient (logP) of 0.71.

`OCCCCC(F)(F)F`: the log partition coefficient (logP) turned out to be 1.15.

Molecule `CCC(O)CCC(F)(F)F` (stereo not given) had a logP of 1.7.

As to `CC(CCO)C(F)(F)F` (stereo not given), the lipophilicity (logP) was 1.37.

Turning to `CC(CO)CC(F)(F)F` (stereo not given), the logP is 1.39.

For `OCCCC(F)(F)F`, the log partition coefficient (logP) turned out to be 0.9.

`CC(CCO)CC(F)(F)F` (stereo not given): the log partition coefficient (logP) was 1.61.

The molecule `OCCCCCC(F)(F)F` displayed a log partition coefficient (logP) of 1.64.

On to `OCCC(F)(F)F`, for which the logP worked out at 0.39.

Consider `CC(C)(O)C(F)(F)F`, for which the log partition coefficient (logP) was determined as 1.04.
